Measurements from article PMC9837035 (Nature Communications, 2023).
Where “and” joins values, the source holds several entries; their conditions need not be identical. Equal values may be shown once. Read-outs that look alike come from different tables or passages of the source.

Molecular target: T1, G9a SET domain (Homo sapiens, UniProt Q96KQ7)
T1 construct: the human G9a SET domain (residues 913–1193) was synthesized using the E. coli cell-free synthesis method; made in house; host or cells: E. coli cell-free synthesis
T1 sequence (Q96KQ7 913-1193): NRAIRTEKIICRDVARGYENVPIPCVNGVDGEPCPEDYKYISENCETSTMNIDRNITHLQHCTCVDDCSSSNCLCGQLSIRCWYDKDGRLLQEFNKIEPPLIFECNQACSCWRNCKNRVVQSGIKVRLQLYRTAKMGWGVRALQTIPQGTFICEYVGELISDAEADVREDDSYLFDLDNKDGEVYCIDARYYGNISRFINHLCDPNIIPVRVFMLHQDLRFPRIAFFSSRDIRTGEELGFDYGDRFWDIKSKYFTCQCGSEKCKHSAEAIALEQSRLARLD
Test: Surface plasmon resonance (SPR)
Format: binding
Experimental: For crystal structure analysis, the human G9a SET domain (residues 913–1193) was synthesized using the E. coli cell-free synthesis method[48],[49] and purified in the same manner as described previously, except that the final size-exclusion column chromatography using HiLoad Superdex 200 16/60 (GE Healthcare) was equilibrated with 20 mM Tris-HCl buffer (pH 8.0) containing 400 mM NaCl. […] Crystals were grown by the hanging drop method at 293 K, where the sample solution was mixed with an equal volume of a reservoir solution containing 100 mM Bis-Tris propane (pH 7.4), 200 mM sodium formate, 10% ethylene glycol, and 25% PEG 3350. The harvested crystals were coated with Paratone-N oil (Hampton Research) before being flash-cooled in liquid nitrogen. Diffraction data were collected at the X06DA beamline of the Swiss Light Source, Paul Scherrer Institut (Villigen, Switzerland), and were processed and scaled with XDS[51], AIMLESS[52], and other CCP4 programs. The structure of G9a with UNC0638 (PDB ID: 3RJW)[23] was used for the initial phase determination by the molecular replacement method with Phaser[53]. The topology and parameter file for the inhibitor was generated with eLBOW[54] from SMILES strings. Structure refinement was carried out with Phenix[55] and manual model building using COOT[56]. Crystallographic statistics are summarized in Supplementary Table 3.
SPR was performed using a Biacore T200 (Cytiva) and Series S Sensorchip SA (Cytiva, BR100531) at the temperature of 25 °C. A solution of PBS, 0.005% TWEEN20 (Sigma, P9416), 0.5 mM TCEP (Nacalai Tesque, 06342-21), and 2% DMSO (Sigma, 276855) was filtered with a 0.22-μm filter and used as the running buffer. Kinetic measurements were carried out at a flow rate of 30 μL/min, and the association and dissociation phases were monitored for 120 s and 120–300 s, respectively. The G9a SET domain was biotinylated by using NHS-PEG4-Biotin (Thermo, 39259), and captured to flow cells 2, 3, and 4 with immobilization levels of ~2300 RU. No specific treatment was applied to the reference surface (flow cell 1). To prevent oxidation of the immobilized protein, a solution containing 1 μM ZnCl2 and 5 mM TCEP was injected at a flow rate of 10 μL/min for 60 s before each set of kinetic measurements. The extra wash command was executed after each measurement cycle with 50% DMSO aqueous solution. To correct for bulk responses, solvent correction was performed once after all kinetics runs by using running buffer containing 1–3% DMSO. The sensorgrams obtained from the three flow cells were analyzed individually by Biacore T200 Evaluation Software (Cytiva). The dissociation constant (KD) and binding kinetic parameters were calculated by a curve fit to a built-in 1:1 binding model.

[1] = single run, read-out: Dissociation constant (Kd)

SMILES | binding to G9a by SPR | Kd (mean of three kinetics runs, read-out: KD) | Kd [1] | Kd (absence of SAM, read-out: Kd) | Kd (earlier SPR conditions, peer review file, read-out: Kd before re-analysis)
Cc1c(C(=O)N[C@H](CCC2CC2)C(=O)Nc2ccc(C#N)cc2)[nH]c2c1C(=O)CC(C)(C)C2 [RK-0133114] | failed to detect the binding | > 20000 nM | > 20000 nM | – | –
Cc1c(C(=O)NC(CCC2CC2)C(=O)Nc2ccc(C#N)cc2)[nH]c2c1C(=O)CC(C)(C)C2 (stereo not shown) [RK-701] | reversible binding | – | 743 nM and 731 nM and 761 nM | 750 nM | 2400 nM
